Patent US9024022B2, “Substrates of O6-alkylguanine-DNA alkyltransferase and mutants thereof” (Cis Bio International, priority 2008, dated 2015)

Experiments:
[1] = biological target: T1, CLIP-tag enzyme (CLIPtag-mGluR2 fusion protein) (Homo sapiens, UniProt P16455, A121V/A127T/A154D/C150Q/C62A/G131N/G132T/G153S/K125A/K32I/L33F/M134L/M60I/N157P/Q115S/Q116H/R128A/R135D/S151G/S152D/S159L/Y114E); test: Cell model with CLIPtag-mGluR2 and SNAPtag-mGluR2 cotransfection, TR-FRET at 665 nm; type: cell-based; settings: cells incubated with 300 nM of BG-methylbenzamide-Tb(KR); TR-FRET; read-out: half saturation concentration of CLIPtag
T1 construct: The co-expressed SNAPtag-mGluR2 is a separate chain that carries the FRET partner dye
T1 sequence (P16455 1-207 K32I/L33F/M60I/C62A/Y114E/Q115S/Q116H/A121V/K125A/A127T/R128A/G131N/G132T/M134L/R135D/C150Q/S151G/S152D/G153S/A154D/N157P/S159L): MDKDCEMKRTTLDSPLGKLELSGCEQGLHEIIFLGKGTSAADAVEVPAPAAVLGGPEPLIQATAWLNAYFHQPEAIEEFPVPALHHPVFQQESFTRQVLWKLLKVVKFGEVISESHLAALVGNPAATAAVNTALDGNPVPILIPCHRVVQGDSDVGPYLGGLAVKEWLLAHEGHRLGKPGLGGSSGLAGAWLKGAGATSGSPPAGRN
Method: (§1) The cell model used in this example is different from that used in the preceding examples:
(§2) The cells are either cotransfected with a plasmid coding for the fusion protein CLIPtag-mGluR2 and another plasmid coding for the fusion protein SNAPtag-mGluR2, or transfected with a single plasmid coding for the fusion protein SNAPtag-mGluR2.
(§3) Each cell population is incubated in the presence of 300 nM of BG-methylbenzamide-DY647 and increasing concentrations of reference substrates (BC-Tb(KR)) or of a substrate according to the invention (BC-methylbenzamide-Tb(KR)). The fluorescence is measured at 665 nm in TR-FRET mode on a Rubystar machine and the signal measured is representative of a transfer of energy following the dimerization of two monomers of mGluR2 labeled respectively by DY647 and Tb(KR).
(§4) This example is carried out in the same way as example 7 but the cells are incubated in the presence of 300 nM of BG-methylbenzamide-Tb(KR) and increasing concentrations of reference substrate (BC-DY647) or of substrate according to the invention (BC-methylbenzamide-DY647), the formulae of which are below: […]

[2] = biological target: T2, SNAP-tag-ST26 enzyme (SNAP-tag-mGluR2 fusion protein) (Homo sapiens, UniProt P16455, A127T/C150S/C62A/G131K/G132T/K125A/M134L/N157G/R128A/R135S/S159E); test: Enzymatic reactivity test in a cell model, SNAP-tag-mGluR2 expressed by COS 7 cells; type: cell-based; settings: living COS 7 cells, labeling 1 h at 37° C., read-out: half saturation concentration of the enzyme
T2 construct: expressed in transfected cells; host or cells: COS 7 cells, transient electroporation
T2 sequence (P16455 1-182 C62A/K125A/A127T/R128A/G131K/G132T/M134L/R135S/C150S/N157G/S159E limits assumed): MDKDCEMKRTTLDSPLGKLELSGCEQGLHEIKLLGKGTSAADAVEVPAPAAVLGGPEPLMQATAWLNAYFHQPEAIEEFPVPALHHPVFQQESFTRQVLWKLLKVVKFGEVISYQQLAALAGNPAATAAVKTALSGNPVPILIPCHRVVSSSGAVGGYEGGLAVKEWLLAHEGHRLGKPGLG
Method: (§5) This procedure makes it possible to test the reactivity of substrates according to the invention with an AGT expressed by COS 7 cells in the form of a fusion protein with the type 2 glutamate transmembrane receptor (mGluR2).
(§6) Various mutants of AGT were analyzed in this study: SNAP-tag-ST26 or CLIP-tag from Covalys or the N-AGT mutant described by Gronemeyer et al. (Protein Engineering, Design & Selection, Vol. 19, No. 7, pp. 309-316, 2006).
• SNAP-tag-mGluR2 plasmid, prepared from the pSET-26b plasmid according to the protocol of the commercial kit (SNAP express pSTE7-26b kit, Covalys Biosciences) • Invitrogen pcdna3.1 plasmid. This plasmid is used as a negative control; the cells transfected with this plasmid are denoted “mock” and make it possible to determine the level of non-specific labeling. Protocol:
(§7) The transient transfection of the cells is carried out by electroporation using a Biorad electroporator: 10 million cells are transfected by 1 μg SNAP-tag-mGluR2+3 μg pcdna3.1 in a final volume of 300 μl. The electroporation parameters are: 280 V & 1000 μF.
(§8) The cells are then seeded at 150 000 cells per well in Greiner plates (opaque black bottom) previously incubated with polyornithine for 30 minutes at 37° C.
(§9) The cells are cultured in the DMEM+Phenol Red+10% FCS+penicillin/streptomycin+non-essential amino acids medium at 37° C. and 5% CO2. After 24 h of expression, a first washing operation is carried out with 100 μl of this same medium.
(§10) The labeling of the AGT-mGluR2 fusion protein takes place in 100 μl of complete medium with increasing concentrations of BG-fluorophore or BG-L1-A-L2-fluorophore according to the invention for 1 h at 37° C. Before the reading, 4 washing operations are carried out with 100 μl of Tris-Krebs.
(§11) For the substrates bearing fluorophores ATTO647 (example 2), DY647 (examples 1 and 5) and fluorescein-5-EX (example 3), the reading is carried out in 100 μl of Tris-Krebs in direct fluorescence at 682 nm on a Rubystar machine, and at 520 nm for those bearing fluorescein-5-EX (example 3).
(§12) For the substrates bearing the terbium KR complex (examples 4 and 6), the reading is taken in 100 μl of Tris-Krebs in time-resolved fluorescence at 620 nm on a Rubystar machine.

[3] = biological target: T3, SNAP-tag enzyme (GST-SNAP-tag-FKBP fusion protein) (Homo sapiens, UniProt P16455, A127T/C150S/C62A/G131K/G132T/K125A/M134L/N157G/R128A/R135S/S159E); test: Enzymatic reactivity test in an in vitro model (TR-FRET labeling of GST-SNAPtag-FKBP recombinant protein); type: biochemical
T3 construct: GST (N)
T3 sequence (P16455 1-182 C62A/K125A/A127T/R128A/G131K/G132T/M134L/R135S/C150S/N157G/S159E limits assumed): T2 sequence (P16455 1-182 C62A/K125A/A127T/R128A/G131K/G132T/M134L/R135S/C150S/N157G/S159E limits assumed)
Excerpt: The test of reactivity of the substrates according to the invention with the SNAP-tag enzyme is based on an in vitro test of labeling a recombinant protein.
In this case, use is made of the FRB and FKBP proteins that interact in the presence of rapamycin.
The FKBP protein is labeled by a first fluorophore via SNAP-tag technology: for this, a GST-SNAPtag-FKBP fusion protein is produced from the pSET7-26b plasmid according to the protocol of the commercial kit (SNAP express pSET7-26b kit, Covalys Biosciences AG, Witterswil/Switzerland). This fusion protein is then brought into contact with the first fluorophore conjugated to a reference BG derivative or to a BG derivative according to the invention.
The FRB protein is itself coupled via conventional conjugation techniques with a donor fluorescent compound (europium TBP cryptate (KTBP), Cisbio Bioassay) or acceptor fluorescent compound (DY647, Dyomics) depending on the case, following the protocols provided with these products.
The table below explains the nature of the pairs of fluorophores in each of the following examples 1 to 4:
In each example, 2 nmol of FRB recombinant protein labeled with a europium cryptate or DY647 (2nd fluorophore) are co-incubated at ambient temperature with 2 nmol of GST-SNAP-tag-FKBP recombinant protein and increasing concentrations of BG labeled by the first fluorophore (BG-fluorophore of the prior art or BG-L1-A-L2-fluorophore according to the invention).
The fluorescence readings are taken at 620 nm and at 665 nm on a RubyStar machine (BMG laboratory) after an excitation at 337 nm. The readings are carried out before and after induction of the FRB/FKBP protein interaction by 100 nM of rapamycin. This interaction is expressed by the emission of a TR-FRET signal. Since the SNAP-tag enzyme can only attach to a single fluorescent group, the increase in the TR-FRET signal is directly proportional to the percentage of labeled proteins in the reaction medium. This in vitro model makes it possible to establish enzymatic labeling kinetics as a function of the excess of substrate involved in the reaction.
The results are indicated either as d665 or as % labeling according to the following formulae: d 665=(signal at 665 nm with the GST-ST-FKBP protein)−(signal at 665 nm without the GST-ST-FKBP protein).
The percentage of labeling is obtained by comparison with the signal corresponding to the maximum labeling that is obtained after 18 hours of incubation. % labeling=(d665 at t measured/d665 18 h of incubation)×100. Procedure of the Enzymatic Reactivity Test in a Cell Model

[4] = biological target: T4, N-AGT enzyme (AGT-mGluR2 fusion protein) (Homo sapiens, UniProt P16455); test: Enzymatic reactivity test in a cell model, N-AGT mutant; type: cell-based
T4 construct: fused on or other part: type 2 metabotropic glutamate receptor (mGluR2)
Method: as §5, §6, §7, §8, §9, §10, §11, §12
In order to validate the effect of the substrate according to the invention on another mutant of AGT, a characterization of extracellular labeling with the NAGT mutant was carried out.

[5] = biological target: T5, CLIP-tag enzyme (CLIPtag-mGluR2 fusion protein) (Homo sapiens, UniProt P16455, K32I/L33F/M60I/C62A/Y114E/Q115S/Q116H/A121V/K125A/A127T/R128A/G131N/G132T/M134L/R135D/C150Q/S151G/S152D/G153S/A154D/N157P/S159L); test: Cell model with CLIPtag-mGluR2 and SNAPtag-mGluR2 cotransfection, TR-FRET at 665 nm; type: cell-based; settings: cells incubated with 300 nM of BG-methylbenzamide-DY647; TR-FRET 665 nm; read-out: half saturation concentration of CLIPtag
T5 construct: The co-expressed SNAPtag-mGluR2 is a separate chain that carries the FRET partner dye
T5 sequence (P16455 1-207 K32I/L33F/M60I/C62A/Y114E/Q115S/Q116H/A121V/K125A/A127T/R128A/G131N/G132T/M134L/R135D/C150Q/S151G/S152D/G153S/A154D/N157P/S159L): T1 sequence (P16455 1-207 K32I/L33F/M60I/C62A/Y114E/Q115S/Q116H/A121V/K125A/A127T/R128A/G131N/G132T/M134L/R135D/C150Q/S151G/S152D/G153S/A154D/N157P/S159L)
Method: as §1, §2, §3, §4

T4 sequence (P16455 whole entry, looked up, the tested form may be a part): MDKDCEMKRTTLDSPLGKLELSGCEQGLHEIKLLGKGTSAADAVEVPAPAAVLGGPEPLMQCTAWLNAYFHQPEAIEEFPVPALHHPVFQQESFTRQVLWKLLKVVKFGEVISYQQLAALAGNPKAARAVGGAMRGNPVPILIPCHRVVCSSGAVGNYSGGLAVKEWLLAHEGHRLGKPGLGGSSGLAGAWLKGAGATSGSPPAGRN

Compound `CCN1/C(=C/C=C/C=C/C2=[N+](CC)c3ccc(S(=O)(=O)[O-])cc3C2(C)C)C(C)(CCCC(=O)NCc2ccc(COc3nccc(N)n3)cc2)c2cc(S(=O)(=O)O)ccc21` (stereo not drawn) [BC-DY647, benzylcytosine-DY647, reference compound] has an EC50 [1] of 1570 nM.
In the case of “Tb(KR)-methylbenzamide-BG [BG-methylbenzamide-Tb(KR)]”, the EC50 [2] is reported as 15.4 nM and the “reactivity of the substrate with the SNAP-tag enzyme” value ([3]; in vitro protein labeling, compared with reference substrate) is reported as “much better reactivity”.
In the case of “DY647-cis-cyclohexane-benzylguanine [BG-cis-cyclohexane-DY647]”, the “percentage of enzyme labeled compared with the reference substrate” value ([3]; in vitro, after 1 h of incubation, regardless of the substrate concentration) is reported as “much better”.
“Atto465-BG [BG-Atto465, reference compound]” gave an EC50 [2] of 1980 nM.
`CCN1/C(=C/C=C/C=C/C2=[N+](CC)c3ccc(S(=O)(=O)[O-])cc3C2(C)C)C(C)(CCCC(=O)NCc2ccc(C(=O)NCc3ccc(COc4nc(N)nc5[nH]cnc45)cc3)cc2)c2cc(S(=O)(=O)O)ccc21` (stereo not drawn) [BG-methylbenzamide-DY647, Dy647-methylbenzamide-BG] was tested, and the EC50 [2] was 91.3 nM, the “half saturation concentration, times lower relative to the reference substrate” value ([4]; N-AGT enzyme, versus BG-DY647) was “around 2 times” and the EC50 ([4]; living cells, N-AGT mutant, labeling 1 h at 37° C., read-out: half saturation concentration of the enzyme) was 22.3 nM. The “percentage of labeling of the SNAP-tag enzyme compared with the reference substrate” value ([3]; in vitro, after 30 min of incubation, regardless of the concentration of substrate) was “greatly improved”.
In the case of “benzylcytosine-Tb(KR) [BC-Tb(KR), reference compound]”, the EC50 [5] is reported as 820 nM.
Compound `Nc1ccc2cc3ccc(N)cc3[n+](CCCC(=O)NCc3ccc(C(=O)NCc4ccc(COc5cc(N)nc6[nH]cnc56)cc4)cc3)c2c1` [BG-methylbenzamide-Atto465, Atto465-methylbenzamide-BG] has an EC50 [2] of 213 nM.
`CCN1/C(=C/C=C/C=C/C2=[N+](CC)c3ccc(S(=O)(=O)[O-])cc3C2(C)C)C(C)(CCCC(=O)NCc2ccc(C(=O)NCc3ccc(COc4nccc(N)n4)cc3)cc2)c2cc(S(=O)(=O)O)ccc21` (stereo not drawn) [BC-methylbenzamide-DY647, DY647-methylbenzamide-BC] gave an EC50 [1] of 240 nM.
